The target in the assay is human P2X7 (Homo sapiens (Human), UniProt Q99572). Nature of the assay: Human P2X7 functional assay (Ca2+ influx, Fluo-4, FDSS). The class given is cell-based. To be noted: antagonistic activity with respect to the human P2X7 receptor; BzATP final concentration 80 microM. As for the experimental part: The ability of the 5,6,7,8-tetrahydroquinoline and 6,7-dihydro-5H-cyclopenta[b]pyridine derivatives of the formula (I) to inhibit the P2X7 channel was measured by Ca^2+ influx assay and electrophysiology assay described below.
Human P2X7 Functional Assay
The functional activity of compounds was determined by measuring changes in intracellular calcium concentration using a Ca^2+-sensitive fluorescent dye, Fluo-4 (Molecular Probes). The changes in fluorescent signal were monitored by the cell imaging technology by Hamamatsu Photonics's Functional Drug Screening System (FDSS). Increases in intracellular Ca^2+ concentration were readily detected upon activation with BzATP.
HEK293 cells stably expressing human P2X7 (GenBank accession number BC011913) carrying a C-terminal FLAG tag were grown in T225 flasks, in a 5% CO2 humidified incubator to about 80% confluence. Media composition consisted of Dulbecco's Modified Eagle Medium (high glucose), 10% fetal bovine serum ([…]), 100 units/[…] Penicillin, 100 microg/mL Streptomycin and 250 microg/mL Geneticine.
1. Plate-out HEK293-human P2X7 cells (40 microL medium containing 10,000 cells per well) into poly-D-lysine coated 384-well plates (Corning) at 24 h prior to assay.
2. Incubate at 37° C. in 5% CO2.
3. Incubate the plate at 37° C. in 5% CO2 for 1 h.
5. Test compounds were prepared at 100× the test concentration in DMSO by serial dilution with Biomek-FX liquid handling instrument. 33× diluted compound solutions in assay buffer were prepared in intermediate compound plate with Biomek-NX liquid handling instrument. A further 3× dilution occurred in below steps 6 and 7.
6. Add 20 microL of 33× diluted compound solutions into each well and leave the plate for 10 min under the dark at room temperature.
7. Measure activity by FDSS as follows: • Set the assay plate on the stacker of FDSS. • Start the detection of fluorescence intensity at 540 nm by 480 nm exicitation. • After 30 seconds, add 20 microL of assay buffer containing 240 microM BzATP (final concentration 80 microM).
IC50 values for compounds of the present invention were determined from 7-point dose-response studies. Curves were generated using the average of duplicate wells for each data point. Finally, the IC50 values are calculated with the best-fit dose curve determined by XLfit (ID Business Solutions Ltd.).

The structures appear in SMILES notation.

human P2X7, sequence (Q99572 whole entry): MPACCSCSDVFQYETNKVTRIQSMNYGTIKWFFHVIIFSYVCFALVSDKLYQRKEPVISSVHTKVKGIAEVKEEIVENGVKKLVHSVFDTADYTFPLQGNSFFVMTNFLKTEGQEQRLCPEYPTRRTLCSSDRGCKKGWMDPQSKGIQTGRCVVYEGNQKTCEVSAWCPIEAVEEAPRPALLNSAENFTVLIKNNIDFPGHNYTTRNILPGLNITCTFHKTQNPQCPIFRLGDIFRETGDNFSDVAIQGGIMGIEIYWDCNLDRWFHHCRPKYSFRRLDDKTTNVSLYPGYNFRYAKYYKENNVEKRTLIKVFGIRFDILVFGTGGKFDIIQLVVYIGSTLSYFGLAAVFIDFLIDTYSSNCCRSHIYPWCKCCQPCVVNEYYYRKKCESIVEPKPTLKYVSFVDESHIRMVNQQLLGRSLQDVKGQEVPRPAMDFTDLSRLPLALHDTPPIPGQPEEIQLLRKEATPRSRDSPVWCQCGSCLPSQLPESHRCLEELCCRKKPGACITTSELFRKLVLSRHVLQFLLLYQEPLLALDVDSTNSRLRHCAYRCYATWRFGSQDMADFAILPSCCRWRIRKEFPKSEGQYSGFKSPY

Consider `O=C(NCc1cc(F)c(F)cc1Cl)[C@@]1(F)CC[C@@H](O)c2ncccc21` [Example 162, (5R,8R)-N-(2-chloro-4,5-difluorobenzyl)-5-fluoro-8-hydroxy-5,6,7,8-tetrahydroquinoline-5-carboxamide], for which the half-maximal inhibitory concentration (IC50) (in general, the concentration needed to halve the response being measured) is 101 to 300 nM.
In turn, `O=C(N[C@H]1C[C@@H]1c1ccccc1)[C@]1(F)CC[C@H](O)c2ncccc21` [Example 215, (5S,8S)-5-fluoro-8-hydroxy-N-((1S,2R)-2-phenylcyclopropyl)-5,6,7,8-tetrahydroquinoline-5-carboxamide] yielded a half-maximal inhibitory concentration (IC50) of 101 to 300 nM.
Under `O=C(NCc1c(Cl)ccc(Cl)c1Cl)[C@]1(F)CC[C@@H](O)c2ncccc21` [Example 124, (5S,8R)-5-fluoro-8-hydroxy-N-(2,3,6-trichlorobenzyl)-5,6,7,8,- tetrahydroquinoline-5-carboxamide] stands 101 to 300 nM.
To `O=C(NCc1ccc(Cl)cc1Cl)[C@@]1(F)CC[C@H](F)c2ncccc21` [Example 353, (5R,8S)-N-(2,4-dichlorobenzyl)-5,8-difluoro-5,6,7,8-tetrahydroquinoline-5-carboxamide] belongs 50 to 100 nM; to `O=C(NCc1ccc(Cl)cc1)[C@]1(F)CC[C@H](O)c2ncccc21` [Example 210, (5S,8S)-N-(4-chlorobenzyl)-5-fluoro-8-hydroxy-5,6,7,8-tetrahydroquinoline-5-carboxamide], 101 to 300 nM; to `O=C(NCc1c(F)cc(F)cc1F)[C@@H]1CC[C@H](O)c2ncccc21` [Example 73, (5R,8S)-8-hydroxy-N-(2,4,6-trifluorobenzyl)-5,6,7,8-tetrahydroquinoline-5-carboxamide], 101 to 300 nM.
Compound `O=C(NCc1ccc(Br)cc1F)[C@H]1CC[C@H](O)c2ncccc21` [Example 79, (5S,8S)-N-(4-bromo-2-fluorobenzyl)-8-hydroxy-5,6,7,8-tetrahydroquinoline-5-carboxamide] gave a concentration for half-maximal inhibition (IC50) of 301 to 1000 nM.
Compound `O=C(NCc1ccc(F)cc1F)[C@]1(F)CC[C@@H](O)c2ncccc21` [Example 109, (5S,8R)-N-(2,4-difluoro-benzyl)-5-fluoro-8-hydroxy-5,6,7,8-tetrahydroquinoline-5-carboxamide] had an IC50 of 301 to 1000 nM.
The compound `O=C(NCc1c(Cl)cccc1Cl)[C@@]1(F)CC[C@@H](O)c2ncccc21` [Example 138, (5R,8R)-N-(2,6-dichlorobenzyl)-5-fluoro-8-hydroxy-5,6,7,8-tetrahydroquinoline-5-carboxamide] showed an IC50 of 101 to 300 nM.
For the compound `O=C(NCc1ccc(OC(F)(F)F)cc1F)[C@]1(F)CC[C@H](O)c2ncccc21` [Example 207, (5S,8S)-5-fluoro-N-(2-fluoro-4-(trifluoromethoxy)benzyl)-8-hydroxy-5,6,7,8-tetrahydroquinoline-5-carboxamide], the half-inhibitory concentration (IC50) is 101 to 300 nM.
To `Cc1cnc2c(c1)[C@](F)(C(=O)NCc1ccc(F)cc1Cl)CC[C@]2(C)O` [Example 276, (5S,8S)-N-(2-chloro-4-fluorobenzyl)-5-fluoro-8-hydroxy-3,8-dimethyl-5,6,7,8-tetrahydroquinoline-5-carboxamide] belongs 301 to 1000 nM; to `CN(CCO)C[C@@]1(O)CC[C@](F)(C(=O)NCc2ccc(Cl)cc2Cl)c2cccnc21` [Example 278, (5R,8S)-N-(2,4-dichlorobenzyl)-5-fluoro-8-hydroxy-8-(((2-hydroxyethyl) (methyl)amino)methyl)-5,6,7,8-tetrahydroquinoline-5-carboxamide], 1000 to 3000 nM; to `O=C(NCc1c(Cl)cc(C(F)(F)F)cc1Cl)[C@]1(F)CC[C@@H](O)c2ncccc21` [Example 113, (5S,8R)-N-(2,6-dichloro-4-(trifluoromethyl)benzyl)-5-fluoro-8-hydroxy-5,6,7,8-tetrahydroquinoline-5-carboxamide], below 50 nM.
On to `Cc1cc(Cl)cc(Cl)c1CNC(=O)[C@H]1CC[C@H](O)c2ncccc21` [Example 63, (5S,8S)-N-(2,4-dichloro-6-methylbenzyl)-8-hydroxy-5,6,7,8-tetrahydro-quinoline-5-carboxamide], for which the concentration for half-maximal inhibition (IC50) fell in the range of 101 to 300 nM.
As for `Cc1ccc(CNC(=O)[C@]2(F)CC[C@@H](O)c3ncccc32)c(Cl)c1` [Example 125, (5S,8R)-N-(2-chloro-4-methylbenzyl)-5-fluoro-8-hydroxy-5,6,7,8-hydroquinoline-5-carboxamide], the IC50 fell in the range of 101 to 300 nM.
Under `O=C(NCc1ccc(F)cc1Cl)[C@H]1CC[C@@H](O)c2ncccc21` [Example 90, (5S,8R)-N-(2-chloro-4-fluorobenzyl)-8-hydroxy-5,6,7,8-tetrahydroquinoline-5-carboxamide] stands 101 to 300 nM; under `C[C@@]1(O)CC[C@@](F)(C(=O)NCC2(N3CCOCC3)CCCCC2)c2cccnc21` [Example 275, (5S,8R)-5-fluoro-8-hydroxy-8-methyl-N-((1-morpholinocyclohexyl)methyl)-5,6,7,8-tetrahydroquinoline-5-carboxamide], 1000 to 3000 nM; under `O=C(NCc1ccc(Cl)c(Cl)c1)[C@]1(F)CC[C@H](O)c2ncccc21` [Example 197, (5S,8S)-N-(3,4-dichlorobenzyl)-5-fluoro-8-hydroxy-5,6,7,8-tetrahydroquinoline-5-carboxamide], below 50 nM.
Compound `Cc1ccc(CNC(=O)[C@@]2(F)CC[C@@H](O)c3ncccc32)c(Cl)c1` [Example 166, (5R,8R)-N-(2-chloro-4-methylbenzyl)-5-fluoro-8-hydroxy-5,6,7,8-tetrahydroquinoline-5-carboxamide] gave an IC50 of 101 to 300 nM.
The compound `O=C(NCCc1ccc(Cl)cc1Cl)[C@]1(F)CC[C@@](O)(CO)c2ncccc21` [Example 330, (5S,8S)-N-(2,4-dichlorophenethyl)-5-fluoro-8-hydroxy-8-(hydroxymethyl)-5,6,7,8-tetrahydroquinoline-5-carboxamide] returned an IC50 of 301 to 1000 nM.
With `O=C(N[C@@H]1C[C@H]1c1ccccc1)[C@]1(F)CC[C@H](O)c2ncccc21` [Example 222, (5S,8S)-5-fluoro-8-hydroxy-N-((1R,2S)-2-phenylcyclopropyl)-5,6,7,8-tetrahydroquinoline-5-carboxamide], the IC50 is 301 to 1000 nM.
Take `O=C(N[C@H]1CCC[C@@H]1OCc1ccccc1)[C@]1(F)CC[C@H](O)c2ncccc21` [Example 225, (5S,8S)-N-((1S,2S)-2-(benzyloxy)cyclopentyl)-5-fluoro-8-hydroxy-5,6,7,8-tetrahydroquinoline-5-carboxamide]: the IC50 lay within 301 to 1000 nM.
`O=C(NCC1(c2ccc(Cl)cc2Cl)CCOCC1)[C@]1(F)CC[C@@](O)(CO)c2ncccc21` [Example 332, (5S,8S)-N-((4-(2,4-dichlorophenyl)tetrahydro-2H-pyran-4-yl)methyl)-5-fluoro-8-hydroxy-8-(hydroxymethyl)-5,6,7,8-tetrahydroquinoline-5-carboxamide] registered an IC50 of 1000 to 3000 nM.
The compound `O=C(NCc1c(F)cc(Cl)cc1Cl)[C@H]1CC[C@@H](O)c2ncccc21` [Example 92, (5S,8R)-N-(2,4-dichloro-6-fluorobneyzl)-8-hy-droxy-5,6,7,8-tetrahydro-quinoline-5-carboxamide] yielded an IC50 of 101 to 300 nM.
In turn, `O=C(NCc1ccccc1F)[C@]1(F)CC[C@H](O)c2ncccc21` [Example 223, (5S,8S)-5-fluoro-N-(2-fluorobenzyl)-8-hydroxy-5,6,7,8-tetrahydroquinoline-5-carboxamide] displayed an IC50 of 301 to 1000 nM.

(Values after patent US11077100B2, “Tetrahydroquinoline derivatives as P2X7 receptor antagonists” (RaQualia Pharma Inc., priority 2017, dated 2021).)
